Results published in ChEMBL document CHEMBL3091294, “Design, synthesis and evaluation of novel 4-dimethylamine flavonoid derivatives as potential multi-functional anti-Alzheimer agents” (Bioorg Med Chem, 2013).

How the values were obtained:
[1] = target: Amyloid-beta precursor protein (Homo sapiens) (UniProt P05067); experiment: Inhibition of amyloid beta (1 to 42) aggregation (unknown origin) at 20 uM after 48 hrs by thioflavin-T fluorescence assay relative to control
Cholinesterase = Cholinesterase (Equus caballus, UniProt P81908)
Description: Inhibition of equine serum BChE using butylthiocholine chloride as substrate incubated for 15 mins prior to substrate addition by Ellman's method

Acetylcholinesterase [2] = target: T1, Acetylcholinesterase (Electrophorus electricus, UniProt O42275)
Description: Inhibition of electric eel AChE using acetylthiocholine chloride as substrate incubated for 15 mins prior to substrate addition by Ellman's method

[3] = Antioxidant activity assessed as trolox equivalent of peroxyl radical scavenging activity at 1 to 5 uM after 15 mins by oxygen radical absorbance capacity-fluorescein assay; format: functional
Acetylcholinesterase [4] = target: T1, Acetylcholinesterase; experiment: Mixed-type inhibition of electric eel AChE using acetylthiocholine chloride as substrate incubated for 15 mins prior to substrate addition by Lineweaver-Burk plot analysis

Chain of Amyloid-beta precursor protein (Homo sapiens) (P05067 whole entry): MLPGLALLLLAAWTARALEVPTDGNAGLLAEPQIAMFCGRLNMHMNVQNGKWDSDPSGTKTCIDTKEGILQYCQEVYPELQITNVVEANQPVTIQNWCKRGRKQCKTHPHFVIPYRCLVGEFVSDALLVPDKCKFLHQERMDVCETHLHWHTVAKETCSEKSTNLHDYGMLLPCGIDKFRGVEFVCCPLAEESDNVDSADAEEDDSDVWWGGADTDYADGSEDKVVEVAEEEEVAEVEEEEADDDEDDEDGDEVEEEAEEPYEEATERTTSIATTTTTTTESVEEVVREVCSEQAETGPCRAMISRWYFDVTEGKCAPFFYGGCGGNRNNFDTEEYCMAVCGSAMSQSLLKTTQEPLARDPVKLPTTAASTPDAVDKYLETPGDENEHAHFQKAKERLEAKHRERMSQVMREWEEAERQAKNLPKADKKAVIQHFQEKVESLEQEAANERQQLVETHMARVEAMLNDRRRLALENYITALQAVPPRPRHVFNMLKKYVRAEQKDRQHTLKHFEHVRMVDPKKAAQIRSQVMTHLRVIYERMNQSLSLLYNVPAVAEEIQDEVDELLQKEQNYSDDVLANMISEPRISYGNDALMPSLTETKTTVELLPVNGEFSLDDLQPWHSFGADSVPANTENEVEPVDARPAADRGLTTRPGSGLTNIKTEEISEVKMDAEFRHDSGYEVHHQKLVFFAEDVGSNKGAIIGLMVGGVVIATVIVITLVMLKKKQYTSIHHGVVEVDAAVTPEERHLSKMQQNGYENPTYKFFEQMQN
T1 sequence (O42275 whole entry): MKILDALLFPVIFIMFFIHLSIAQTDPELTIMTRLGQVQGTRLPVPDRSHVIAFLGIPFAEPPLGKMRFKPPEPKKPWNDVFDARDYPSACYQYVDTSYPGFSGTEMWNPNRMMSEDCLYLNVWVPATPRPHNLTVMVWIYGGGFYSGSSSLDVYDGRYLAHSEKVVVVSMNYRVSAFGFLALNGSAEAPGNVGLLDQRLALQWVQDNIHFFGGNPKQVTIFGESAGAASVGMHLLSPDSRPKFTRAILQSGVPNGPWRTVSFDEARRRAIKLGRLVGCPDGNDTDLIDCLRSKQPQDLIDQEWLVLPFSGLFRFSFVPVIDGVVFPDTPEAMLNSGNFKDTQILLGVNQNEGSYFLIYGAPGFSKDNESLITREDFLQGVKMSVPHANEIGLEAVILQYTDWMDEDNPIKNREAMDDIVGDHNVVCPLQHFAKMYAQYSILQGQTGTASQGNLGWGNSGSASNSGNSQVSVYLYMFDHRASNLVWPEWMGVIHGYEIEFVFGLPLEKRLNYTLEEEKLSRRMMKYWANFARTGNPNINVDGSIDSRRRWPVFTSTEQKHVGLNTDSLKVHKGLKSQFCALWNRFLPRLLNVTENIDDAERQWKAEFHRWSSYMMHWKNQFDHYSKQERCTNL
Chain of Cholinesterase (P81908 whole entry): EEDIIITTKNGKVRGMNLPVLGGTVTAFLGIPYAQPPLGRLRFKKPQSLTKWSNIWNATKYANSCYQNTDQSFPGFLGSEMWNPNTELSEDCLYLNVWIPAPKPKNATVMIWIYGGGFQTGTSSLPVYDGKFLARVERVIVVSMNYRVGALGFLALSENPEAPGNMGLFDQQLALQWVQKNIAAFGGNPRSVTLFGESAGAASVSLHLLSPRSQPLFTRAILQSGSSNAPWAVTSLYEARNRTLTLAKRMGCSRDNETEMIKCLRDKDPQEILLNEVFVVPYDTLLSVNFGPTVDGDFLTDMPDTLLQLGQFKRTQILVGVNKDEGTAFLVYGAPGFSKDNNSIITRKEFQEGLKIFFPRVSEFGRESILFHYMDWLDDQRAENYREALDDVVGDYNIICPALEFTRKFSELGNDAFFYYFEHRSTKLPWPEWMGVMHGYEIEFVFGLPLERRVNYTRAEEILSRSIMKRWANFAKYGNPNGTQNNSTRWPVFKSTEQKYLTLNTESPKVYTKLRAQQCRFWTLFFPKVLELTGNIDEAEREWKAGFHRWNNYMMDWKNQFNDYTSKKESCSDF

Compound	inhibition [1] [%]	IC50 (Cholinesterase) [µM]	IC50 (Acetylcholinesterase [2]) [µM]	Activity [3]	Ki (Acetylcholinesterase [4]) [µM]
CN(C)c1ccc(-c2cc(=O)c3ccc(OCCCCN4CCOCC4)cc3o2)cc1	44.7	10.1	> 50	–	–
CCN(CC)CCCCCCOc1ccc2c(=O)cc(-c3ccc(N(C)C)cc3)oc2c1	38.1	4.61	3.11	–	–
CN(C)c1ccc(-c2cc(=O)c3ccc(OCCCCN4CCCC4)cc3o2)cc1	36.6	6.14	2.77	–	–
CN(C)c1ccc(-c2cc(=O)c3ccc(OCCCCCCCCN4CCCC4)cc3o2)cc1	42.1	2.6	1.99	1.5	–
CN(C)c1ccc(-c2cc(=O)c3ccc(OCCCCCCN4CCCC4)cc3o2)cc1	32.6	11.5	9.18	–	–
CCN(CC)CCCCOc1ccc2c(=O)cc(-c3ccc(N(C)C)cc3)oc2c1	33.2	7.88	2.24	–	–
CN(CCCCCCCCCCOc1ccc2c(=O)cc(-c3ccc(N(C)C)cc3)oc2c1)Cc1ccccc1	29.4	> 50	11.4	1.5	–
CCN(CC)CCCCCCCCCCOc1ccc2c(=O)cc(-c3ccc(N(C)C)cc3)oc2c1	33.4	2.31	3.74	1.5	–
CN(C)c1ccc(-c2cc(=O)c3ccc(OCCCCCCCCCCN4CCCCC4)cc3o2)cc1	40.7	2.42	> 50	1.5	–
CN(CCCCOc1ccc2c(=O)cc(-c3ccc(N(C)C)cc3)oc2c1)Cc1ccccc1	39.1	> 50	8.29	–	–
CCN(CC)CCCCCCCCOc1ccc2c(=O)cc(-c3ccc(N(C)C)cc3)oc2c1	45.8	5.01	1.83	1.5	0.386
CN(C)c1ccc(-c2cc(=O)c3ccc(OCCCCCCCCN4CCCCC4)cc3o2)cc1	34.8	8.72	7.88	1.5	–
CN(C)c1ccc(-c2cc(=O)c3ccc(OCCCCCCN4CCCCC4)cc3o2)cc1	25.4	5.52	6.73	–	–
CN(CCCCCCOc1ccc2c(=O)cc(-c3ccc(N(C)C)cc3)oc2c1)Cc1ccccc1	46.5	> 50	7.85	–	–
CN(CCCCCCCCCCCCOc1ccc2c(=O)cc(-c3ccc(N(C)C)cc3)oc2c1)Cc1ccccc1	48.1	> 50	33.2	–	–
CN(C)c1ccc(-c2cc(=O)c3ccc(OCCCCN4CCCCC4)cc3o2)cc1	30.6	6.12	3.04	–	–
CN(C)c1ccc(-c2cc(=O)c3ccc(OCCCCCCCCCCN4CCCC4)cc3o2)cc1	38.6	0.82	2.26	1.5	–
CN(CCCCCCCCOc1ccc2c(=O)cc(-c3ccc(N(C)C)cc3)oc2c1)Cc1ccccc1	39.5	> 50	24	1.5	–
